Earlier results in patent publication US20090042781A1, “Methods for Treating Diabetes” (Novo Nordisk A/S, priority 2004, published 2009).

Legend:
[1] = administered by gastric gavage
[2] = injected into dogs

CC(C)(Oc1ccc(C2CC2(Cl)Cl)cc1)C(=O)O (stereo not drawn) [ciprofibrate]
serum gastrin level [1]: increase

Exendin-4
blood glucose level [2]: lowering of the blood glucose level | insulin release [2]: stimulate insulin release
